Test results from patent US4468511A, “C-20- And C-23-Modified macrolide derivatives” (Eli Lilly and Company, priority 1983, dated 1984).
Values after ≈ are worked out from the molar mass of the structure shown.

Assays:
[1] = test system: Staphylococcus aureus S13E; assay: microbe, parasite or virus in culture; format: cell-based
Description: (§1) The MIC's in Table II were determined by standard agar-dilution assays. The MIC's in Table III were obtained using a conventional broth-dilution microtiter test.

[2] = test system: Staphylococcus epidermidis EPI1; assay: microbe, parasite or virus in culture; format: cell-based; details: Staphylococcus epidermidis, EPI1
Description: as §1

[3] = test system: Pasteurella hemolytica 23C; assay: MIC, conventional broth-dilution microtiter test; format: cell-based; details: Pasteurella, 23C
Procedure, shortened: (§2)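 The Klebsiella MIC was obtained by agar-dilution assay. Other organisms (Pasteurella hemolytica, Pasteurella multocida, Mycoplasma gallisepticum) were tested by conventional broth microdilution.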

[4] = test system: Mycoplasma gallisepticum 34159; assay: MIC, conventional broth-dilution microtiter test; format: cell-based; details: Mycoplasmoides gallisepticum; broth-dilution microtiter; Mycoplasma gallisepticum 34159, Resistant strain; read-out: MIC
Procedure, shortened: as §2

[5] = test system: Pasteurella hemolytica 41D; assay: MIC, conventional broth-dilution microtiter test; format: cell-based; details: Pasteurella, 41D
Procedure, shortened: as §2

[6] = test system: Pasteurella multocida 22A; assay: MIC, conventional broth-dilution microtiter test; format: cell-based; details: Pasteurella multocida, 22A
Procedure, shortened: as §2

[7] = test system: Mycoplasma gallisepticum 41313; assay: MIC, conventional broth-dilution microtiter test; format: cell-based; details: Mycoplasmoides gallisepticum; broth-dilution microtiter; Mycoplasma gallisepticum 41313, Resistant strain; read-out: MIC
Procedure, shortened: as §2

[8] = test system: Pasteurella hemolytica 22C; assay: MIC, conventional broth-dilution microtiter test; format: cell-based; details: broth-dilution microtiter; Pasteurella hemolytica 22C; read-out: MIC
Procedure, shortened: as §2

[9] = test system: Pasteurella multocida 17E; assay: MIC, conventional broth-dilution microtiter test; format: cell-based; details: Pasteurella multocida, 17E
Procedure, shortened: as §2

[10] = test system: Staphylococcus aureus; assay: MIC, conventional broth-dilution microtiter test; format: cell-based; details: broth-dilution microtiter, read-out: MIC
Description: (§3) Certain of the derivatives are active against some gram-negative bacteria, such as Pasteurella species. The MIC's in Table II were determined by standard agar-dilution assays. The MIC's in Table III were obtained using a conventional broth-dilution microtiter test.

[11] = test system: Mycoplasma hyorhinis; assay: MIC, conventional broth-dilution microtiter test; format: cell-based; details: broth-dilution microtiter; Mycoplasma hyorhinis; read-out: MIC
Procedure, shortened: (§4)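 Two formats were used. Broth dilution in microtiter plates served for Pasteurella and Mycoplasma, while agar dilution served for Klebsiella.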

[12] = test system: Pasteurella multocida 40G; assay: MIC, conventional broth-dilution microtiter test; format: cell-based; details: Pasteurella multocida, 40G
Procedure, shortened: as §2

[13] = test system: Mycoplasma synoviae; assay: MIC, conventional broth-dilution microtiter test; format: cell-based; details: Mycoplasmopsis synoviae; broth-dilution microtiter; Mycoplasma synoviae; read-out: MIC
Procedure, shortened: as §4

[14] = test system: Pasteurella multocida 68C; assay: MIC, conventional broth-dilution microtiter test; format: cell-based; details: Pasteurella multocida, 68C
Procedure, shortened: as §2

[15] = test system: Pasteurella multocida 60A; assay: MIC, conventional broth-dilution microtiter test; format: cell-based; details: Pasteurella multocida, 60A
Procedure, shortened: as §2

[16] = test system: Streptococcus sp. 80; assay: MIC, conventional broth-dilution microtiter test; format: cell-based; details: broth-dilution microtiter; Streptococcus sp. 80; read-out: MIC
Description: as §3

[17] = test system: Mycoplasma gallisepticum; assay: MIC, conventional broth-dilution microtiter test; format: cell-based; details: Mycoplasmoides gallisepticum
Procedure, shortened: as §2

[18] = test system: Streptococcus Group D X66; assay: MIC, standard agar-dilution assay; format: cell-based
Description: as §3

[19] = test system: Escherichia coli TEM; assay: MIC, standard agar-dilution assay; format: cell-based; details: agar-dilution; Escherichia coli TEM; read-out: MIC
Procedure, shortened: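 Antibacterial activity toward the gram-negative organism Escherichia coli was assessed by conventional agar dilution. The MIC, reported in ug/mL, is the minimum compound concentration on agar that prevents growth.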

[20] = test system: Klebsiella pneumoniae KAE; assay: MIC, standard agar-dilution assay; format: cell-based; details: agar-dilution; Klebsiella pneumoniae KAE; read-out: MIC
Procedure, shortened: as §2

[21] = test system: Streptococcus pyogenes C203; assay: MIC, standard agar-dilution assay; format: cell-based; details: agar-dilution; Streptococcus pyogenes C203; read-out: MIC
Description: as §3

[22] = test system: Staphylococcus aureus V41; assay: MIC, standard agar-dilution assay; format: cell-based; details: Staphylococcus aureus, V41
Description: as §3

[23] = test system: Staphylococcus aureus X1.1; assay: MIC, standard agar-dilution assay; format: cell-based; details: Staphylococcus aureus, X1.1
Procedure, shortened: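 A standard agar-dilution assay was used to test compounds against the Staphylococcus aureus isolate X1.1. Bacterial growth on agar with different compound concentrations was assessed, and the minimum inhibitory concentration was recorded in ug/mL.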

[24] = test system: Streptococcus pneumoniae Park I; assay: MIC, standard agar-dilution assay; format: cell-based; details: agar-dilution; Streptococcus pneumoniae Park I; read-out: MIC
Description: as §3

[25] = test system: Streptococcus pyogenes 9960; assay: MIC, standard agar-dilution assay; format: cell-based; details: 9960
Description: as §3

[26] = test system: Escherichia coli EC14; assay: MIC, standard agar-dilution assay; format: cell-based; details: agar-dilution; Escherichia coli EC14; read-out: MIC
Description: as §3

[27] = test system: Klebsiella pneumoniae X26; assay: MIC, standard agar-dilution assay; format: cell-based; details: agar-dilution; Klebsiella pneumoniae X26; read-out: MIC
Procedure, shortened: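 Agar plates containing graded compound levels gave the Klebsiella value. Graded broth dilutions in microtiter plates gave the Pasteurella and Mycoplasma values.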

[28] = test system: Haemophilus influenzae C.L.; assay: MIC, standard agar-dilution assay; format: cell-based; details: agar-dilution; Haemophilus influenzae C.L., Ampicillin-sensitive strain; read-out: MIC
Description: as §1

[29] = test system: Staphylococcus aureus X400; assay: MIC, standard agar-dilution assay; format: cell-based; details: agar-dilution; Staphylococcus aureus X400, Methicillin-resistant strain; read-out: MIC
Description: as §1

[30] = test system: Staphylococcus epidermidis EPI2; assay: MIC, standard agar-dilution assay; format: cell-based; details: agar-dilution; Staphylococcus epidermidis EPI2; read-out: MIC
Description: as §1

[31] = test system: Haemophilus influenzae 76; assay: MIC, standard agar-dilution assay; format: cell-based; details: agar-dilution; Haemophilus influenzae 76, Ampicillin-resistant strain; read-out: MIC
Description: as §1

[32] = test system: Pasteurella multocida; assay: Pasteurella infection in one-day old chicks; format: in vivo; details: subcutaneous, 30 mg/kg × 2, 1 and 4 hours post-challenge
Description: Certain of the formula 1 compounds of this invention have also shown in vivo activity against infections induced by gram-negative bacteria. Table V summarizes the results of tests in which illustrative compounds were evaluated against a Pasteurella infection in one-day old chicks. The compounds were administered parenterally after challenge of the chicks with Pasteurella multocida (0.1 ml of a 10^-4 dilution of a twenty-hour tryptose broth culture of an avian P. multocida given subcutaneously). In these tests, unless indicated otherwise, all non-medicated infected chicks died within 24 hours of Pasteurella challenge. In the tests summarized in Table V, the compounds were administered by subcutaneous injection at a dosage of 30 mg/kg, 1 and 4 hours post-challenge of the chicks with P. multocida.

CCC1OC(=O)CC(O)C(C)C(OC2OC(C)C(O)C(N(C)C)C2O)C(CCOc2ccccc2)CC(C)C(=O)C=CC(C)=CC1CN1CCCCCCC1 (centres unmarked) [Compound 34, 20-O-Phenyl-20-dihydro-23-Octahydroazocin-1-yl-OMT]
MIC [1]: 0.25 µg/mL (≈ 0.324 µM) | MIC [2]: 0.25 µg/mL (≈ 0.324 µM) | MIC [3]: 3.12 µg/mL (≈ 4.05 µM) | MIC [4]: 50 µg/mL (≈ 64.8 µM) | MIC [5]: 3.12 µg/mL (≈ 4.05 µM) | MIC [6]: 6.25 µg/mL (≈ 8.11 µM) | MIC [7]: 25 µg/mL (≈ 32.4 µM) | MIC [8]: 1.56 µg/mL (≈ 2.02 µM) | MIC [9]: 3.12 µg/mL (≈ 4.05 µM) | MIC [10]: 0.39 µg/mL (≈ 0.506 µM) | MIC [11]: 50 µg/mL (≈ 64.8 µM) | MIC [12]: 3.12 µg/mL (≈ 4.05 µM) | MIC [13]: 12.5 µg/mL (≈ 16.2 µM) | MIC [14]: 3.12 µg/mL (≈ 4.05 µM) | MIC [15]: 6.25 µg/mL (≈ 8.11 µM) | MIC [16]: 0.78 µg/mL (≈ 1.01 µM) | MIC [17]: 0.097 µg/mL (≈ 0.126 µM) | MIC [18]: 2 µg/mL (≈ 2.59 µM) | MIC [19]: 8 µg/mL (≈ 10.4 µM) | MIC [20]: > 128 µg/mL | MIC [21]: 0.12 µg/mL (≈ 0.156 µM) | MIC [22]: 0.25 µg/mL (≈ 0.324 µM) | MIC [23]: 0.25 µg/mL (≈ 0.324 µM) | MIC [24]: 0.12 µg/mL (≈ 0.156 µM) | MIC [25]: 2 µg/mL (≈ 2.59 µM) | MIC [26]: > 128 µg/mL | MIC [27]: 8 µg/mL (≈ 10.4 µM) | MIC [28]: 4 µg/mL (≈ 5.19 µM) | MIC [29]: 0.5 µg/mL (≈ 0.648 µM) | MIC [30]: 0.12 µg/mL (≈ 0.156 µM) | MIC [31]: 8 µg/mL (≈ 10.4 µM) | Number of Deaths/Number Treated [32]: 10/10
